Earlier results in patent publication US11692003B2, “Mithramycin derivatives having increased selectivity and anti-cancer activity” (University of Kentucky Research Foundation, priority 2018, dated 2023).

Tested on: several cancer cell lines

SMILES: CO[C@H](C(=O)C(C)=O)[C@@H]1Cc2cc3cc(OC4C[C@@H](OC5C[C@@H](O)[C@H](O)C(C)O5)[C@H](O)C(C)O4)c(C)c(O)c3c(O)c2C(=O)[C@H]1OC1C[C@@H](OC2C[C@@H](OC3C[C@](C)(O)[C@H](O)C(C)O3)[C@@H](O)C(C)O2)[C@H](O)C(C)O1 (some centres unmarked) [MTM SDK, mithramycin SDK]
- activity against several cancer cell lines compared to the parent MTM: increased activity

SMILES: CO[C@H](C(O)C(C)=O)[C@@H]1Cc2cc3cc(OC4C[C@@H](OC5C[C@@H](O)[C@H](O)C(C)O5)[C@H](O)C(C)O4)c(C)c(O)c3c(O)c2C(=O)[C@H]1OC1C[C@@H](OC2C[C@@H](OC3C[C@](C)(O)[C@H](O)C(C)O3)[C@@H](O)C(C)O2)[C@H](O)C(C)O1 (some centres unmarked) [MTM SK, Mithramycin SK]
- activity against several cancer cell lines compared to the parent MTM: increased activity
